According to patent US6737383B1, “Herbicidal oxadiazolidines” (priority 1999, dated 2004):

Legend:
[1] = system: rape; experiment: Test B pre/postemergence rape; assay type: in vivo, Brassica napus
Procedure, shortened: (§1)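 Herbicidal effect was estimated by eye on a ten-point control scale after plants spent twelve to sixteen days in a greenhouse following soil or foliar treatment. Foliar sprays targeted plants at one to four leaves; all doses were formulated in a non-phytotoxic solvent with surfactant.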

[2] = system: pigweed; experiment: Test B pre/postemergence pigweed; assay type: in vivo, Amaranthus retroflexus
Procedure, shortened: as §1

[3] = system: smallflower flatsedge; experiment: Test B flood test smallflower flatsedge; assay type: in vivo, Cyperus difformis
Procedure, shortened: (§2)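 Each value is a visual injury score relative to controls, with 10 meaning complete control and 0 no effect. Evaluation took place twelve to sixteen days after the 2-leaf-stage plants were treated and kept in the greenhouse.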

[4] = system: soybean; experiment: Test B pre/postemergence soybean; assay type: in vivo, Glycine max
Procedure, shortened: as §1

[5] = system: blackgrass; experiment: Test B pre/postemergence blackgrass; assay type: in vivo, Alopecurus myosuroides
Procedure, shortened: as §1

[6] = system: bedstraw; experiment: Test B pre/postemergence bedstraw; assay type: in vivo, Galium aparine
Procedure, shortened: as §1

[7] = system: giant foxtail; experiment: Test B pre/postemergence giant foxtail; assay type: in vivo, Setaria faberii
Procedure, shortened: as §1

[8] = system: sugar beet; experiment: Test B pre/postemergence sugar beet; assay type: in vivo, Beta vulgaris
Procedure, shortened: as §1

[9] = system: bamyardgrass; experiment: Test B flood test barnyardgrass; assay type: in vivo, Echinochloa crus-galli
Procedure, shortened: as §2

[10] = system: cocklebur; experiment: Test B pre/postemergence cocklebur; assay type: in vivo, Xanthium strumarium
Procedure, shortened: as §1

[11] = system: corn; experiment: Test B pre/postemergence corn; assay type: in vivo, Zea mays
Procedure, shortened: as §1

[12] = system: duck salad; experiment: Test B flood test duck salad; assay type: in vivo, Heteranthera limosa
Procedure, shortened: as §2

[13] = system: wild oat; experiment: Test B pre/postemergence wild oat; assay type: in vivo, Avena fatua
Procedure, shortened: as §1

[14] = system: purple nutsedge; experiment: Test B pre/postemergence purple nutsedge; assay type: in vivo, Cyperus rotundus; conditions: Postemergence
Procedure, shortened: as §1

[15] = system: morningglory; experiment: Test B pre/postemergence morningglory; assay type: in vivo, Ipomoea hederacea
Procedure, shortened: as §1

[16] = system: crabgrass; experiment: Test B pre/postemergence crabgrass; assay type: in vivo, Digitaria sanguinalis
Procedure, shortened: as §1

[17] = system: rice; experiment: Test B flood test rice; assay type: in vivo, Oryza sativa
Procedure, shortened: as §2

[18] = system: velvetleaf; experiment: Test B pre/postemergence velvetleaf; assay type: in vivo, Abutilon theophrasti
Procedure, shortened: as §1

[19] = system: wheat; experiment: Test B pre/postemergence wheat; assay type: in vivo, Triticum aestivum
Procedure, shortened: as §1

[20] = system: surinam grass; experiment: Test B pre/postemergence surinam grass; assay type: in vivo, Brachiaria decumbens
Procedure, shortened: as §1

[21] = system: maize hybrid P33G26; experiment: Test G maize injury with safener-treated seed; conditions: in vivo
Procedure, shortened: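 Maize hybrid P33G26 seed, treated with dichlormid, fenchlorazole-ethyl or naphthalic anhydride or left untreated, was sown in soil pots, then sprayed pre-emergence with several compound rates at 310 L/ha. Plants grew in a greenhouse (14 h day, about 27/24 °C day/night), with 4–5 replicates. Injury was scored visually against untreated controls 28 days after application.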

[22] = Preemergence, Rate 62 g/ha, scale of 0 to 10 where 0 is no effect and 10 is complete control
[23] = Preemergence, Rate 250 g/ha, scale of 0 to 10 where 0 is no effect and 10 is complete control
[24] = Preemergence, Rate 500 g/ha, scale of 0 to 10 where 0 is no effect and 10 is complete control
[25] = Rate 125 g/ha, Preemergence, scale of 0 to 10 where 0 is no effect and 10 is complete control
[26] = Rate 500 g/ha, Postemergence, scale 0 to 10, 0 no effect, 10 complete control
[27] = Rate 62 g/ha, headed Pre-emergence (flood test species), scale 0 to 10 (0 no effect, 10 complete control)
[28] = Rate 125 g/ha, Pre-emergence, flood test species, scale 0 to 10 where 0 is no effect and 10 is complete control
[29] = Rate 250 g/ha, Pre-emergence, flood-test species, scale 0 to 10, 0 is no effect, 10 is complete control
[30] = Rate 500 g/ha, Pre-emergence, flood test species, scale 0 to 10 (0 no effect, 10 complete control)
[31] = Rate 62 g/ha, Postemergence, scale of 0 to 10 where 0 is no effect and 10 is complete control
[32] = Rate 125 g/ha, Postemergence, scale 0 to 10

CC(C)N(C(=O)n1oc(=O)n(CCC2OCCCO2)c1=O)c1ccc(F)cc1 [Compound 255]
7: Plant response rating (0 to 10; 0 is no effect, 10 is complete control), Blackgrass ([5]; Rate 250 g/ha, Postemergence) | Plant response rating, Sugarbeets [8, 24] | Crabgrass plant response rating [16, 23] | Plant response rating, Velvetleaf [18, 24]
10: Plant response rating, Redroot pigweed [2, 24] | Blackgrass plant response rating [5, 22] | Blackgrass plant response rating [5, 23] | Plant response rating, Blackgrass [5, 24] | Blackgrass plant response rating [5, 25] | Giant foxtail plant response rating [7, 23] | Plant response rating, Giant foxtail [7, 24] | Plant response rating, Wild oats [13, 24]
2: Redroot pigweed plant response rating [2, 25] | Plant response rating (0 to 10; 0 is no effect, 10 is complete control), Redroot pigweed ([2]; Rate 250 g/ha, Postemergence) | Blackgrass plant response rating [5, 32] | Plant response rating (0 to 10; 0 is no effect, 10 is complete control), Bedstraw ([6]; Rate 250 g/ha, Postemergence) | Cocklebur plant response rating [10, 26] | Wild oats plant response rating [13, 25] | Plant response rating (0 to 10; 0 is no effect, 10 is complete control), Crabgrass ([16]; Rate 250 g/ha, Postemergence) | B. signalgrass plant response rating [20, 25] | Plant response rating (0 to 10; 0 is no effect, 10 is complete control), B. signalgrass ([20]; Rate 250 g/ha, Postemergence)
3: Plant response rating (0 to 10; 0 is no effect, 10 is complete control), Rape ([1]; Rate 250 g/ha, Postemergence) | Rape plant response rating [1, 26] | Sugarbeets plant response rating [8, 25] | Sugarbeets plant response rating [8, 26] | Crabgrass plant response rating [16, 25] | Crabgrass plant response rating [16, 26] | B. signalgrass plant response rating [20, 23]
1: Velvetleaf plant response rating [18, 26]
4: Wild oats plant response rating [13, 26] | Wheat plant response rating [19, 23]
9: Blackgrass plant response rating [5, 26] | Giant foxtail plant response rating [7, 25] | Plant response rating, Crabgrass [16, 24] | Plant response rating, B. signalgrass [20, 24]
5: Plant response rating, Rape [1, 24] | Redroot pigweed plant response rating [2, 23] | Wild oats plant response rating [13, 23] | Velvetleaf plant response rating [18, 23]
6: Soybean plant response rating [4, 26] | Plant response rating (0 to 10; 0 is no effect, 10 is complete control), Giant foxtail ([7]; Rate 250 g/ha, Postemergence) | Sugarbeets plant response rating [8, 23] | Corn plant response rating [11, 26] | Nutsedge plant response rating ([14]; Rate 500 g/ha, scale 0 to 10, 0 no effect, 10 complete control)
0: Rape plant response rating [1, 22] | Rape plant response rating [1, 23] | Rape plant response rating [1, 25] | Redroot pigweed plant response rating [2, 22] | S. Flatsedge plant response rating [3, 27] | S. Flatsedge plant response rating [3, 28] | S. Flatsedge plant response rating [3, 29] | S. Flatsedge plant response rating [3, 30] | Soybean plant response rating [4, 22] | Soybean plant response rating [4, 23] | Plant response rating, Soybean [4, 24] | Soybean plant response rating [4, 25] | Blackgrass plant response rating [5, 31] | Bedstraw plant response rating [6, 22] | Bedstraw plant response rating [6, 23] | Plant response rating, Bedstraw [6, 24] | Bedstraw plant response rating [6, 31] | Bedstraw plant response rating [6, 32] | Bedstraw plant response rating [6, 25] | Sugarbeets plant response rating [8, 22] | Barnyardgrass plant response rating [9, 27] | Barnyardgrass plant response rating [9, 28] | Barnyardgrass plant response rating [9, 29] | Barnyardgrass plant response rating [9, 30] | Cocklebur plant response rating [10, 22] | Cocklebur plant response rating [10, 23] | Plant response rating, Cocklebur [10, 24] | Cocklebur plant response rating [10, 31] | Cocklebur plant response rating [10, 32] | Cocklebur plant response rating [10, 25] | Plant response rating (0 to 10; 0 is no effect, 10 is complete control), Cocklebur ([10]; Rate 250 g/ha, Postemergence) | Corn plant response rating [11, 22] | Corn plant response rating [11, 23] | Corn plant response rating [11, 31] | Corn plant response rating [11, 32] | Corn plant response rating [11, 25] | Plant response rating (0 to 10; 0 is no effect, 10 is complete control), Corn ([11]; Rate 250 g/ha, Postemergence) | Ducksalad plant response rating [12, 27] | Ducksalad plant response rating [12, 28] | Ducksalad plant response rating [12, 29] | Ducksalad plant response rating [12, 30] | Wild oats plant response rating [13, 22] | Plant response rating (0 to 10; 0 is no effect, 10 is complete control), Nutsedge ([14]; Rate 250 g/ha) | Morningglory plant response rating [15, 22] | Morningglory plant response rating [15, 23] | Plant response rating, Morningglory [15, 24] | Morningglory plant response rating [15, 25] | Crabgrass plant response rating [16, 22] | Rice plant response rating [17, 27] | Rice plant response rating [17, 28] | Rice plant response rating [17, 29] | Rice plant response rating [17, 30] | Velvetleaf plant response rating [18, 22] | Velvetleaf plant response rating [18, 25] | Wheat plant response rating [19, 22] | Wheat plant response rating [19, 25] | B. signalgrass plant response rating [20, 22] | B. signalgrass plant response rating [20, 31] | B. signalgrass plant response rating ([20]; Rate 125 g/ha, Postemergence, scale 0 (no effect) to 10 (complete control))
8: Redroot pigweed plant response rating [2, 26] | Bedstraw plant response rating [6, 26] | Giant foxtail plant response rating [7, 22] | Giant foxtail plant response rating [7, 26] | Plant response rating, Corn [11, 24] | Plant response rating (0 to 10; 0 is no effect, 10 is complete control), Morningglory ([15]; Rate 250 g/ha, Postemergence) | Morningglory plant response rating [15, 26] | Plant response rating, Wheat [19, 24] | Wheat plant response rating [19, 26] | B. signalgrass plant response rating [20, 26]

O=C1OC(=O)c2cccc3cccc1c23 [naphthalic anhydride, reference compound]
safened against the herbicide damage: Safening effect on maize injury [21]
severely inhibited corn germination: Effect of safener seed treatment on corn germination [21]
